Assay results as given in patent publication US20120322819A1, “COMPOUND CONTAINING A NOVEL 4-ALKOXYPYRIMIDINE STRUCTURE AND MEDICINE CONTAINING SAME” (KOWA COMPANY, LTD., priority 2010, published 2012).

What was measured:
[1] = target: T1, angiotensin II type 1 receptor (Oryctolagus cuniculus, UniProt P34976); assay: Angiotensin II antagonistic activity in isolated rabbit blood vessels (angiotensin II-induced contraction of thoracic aorta ring); conditions: angiotensin II (10 nM)-induced contraction, compound 1 nmol/L to 10 μmol/L, 37° C., read-out: IC50 (50% inhibition concentration of angiotensin II-induced contraction)
T1 construct: By using a specimen of isolated rabbit blood vessels; from tissue; host or cells: rabbit thoracic aorta ring (New Zealand White, male)
T1 sequence (P34976 1-359): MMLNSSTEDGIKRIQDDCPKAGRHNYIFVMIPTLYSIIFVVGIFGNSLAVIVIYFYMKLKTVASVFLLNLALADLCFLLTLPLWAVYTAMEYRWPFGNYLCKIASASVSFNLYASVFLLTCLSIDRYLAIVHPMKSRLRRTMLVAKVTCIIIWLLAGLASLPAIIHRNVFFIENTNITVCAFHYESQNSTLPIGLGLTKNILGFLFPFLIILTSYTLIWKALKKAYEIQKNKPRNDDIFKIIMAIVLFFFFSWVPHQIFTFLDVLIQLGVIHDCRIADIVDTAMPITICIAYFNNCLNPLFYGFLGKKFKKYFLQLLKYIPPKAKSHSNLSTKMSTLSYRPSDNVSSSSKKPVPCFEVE
Text: Angiotensin II Antagonistic Activity in Isolated Rabbit Blood Vessels
By using a specimen of isolated rabbit blood vessels, antagonistic activity of the compounds of the invention against angiotensin II type 1 receptor was estimated from a dose-response curve of angiotensin II-induced blood vessel contraction. Specifically, the specimen of thoracic aorta ring of a rabbit (New Zealand White: male, 2.4 to 3.0 kg) was suspended in a magnus bath filled with Krebs-Henseleite buffer (composition: 118 mM NaCl, 4.7 mM KCl, 2.55 mM CaCl2, 1.18 mM MgSO4, 1.18 mM KH2PO4, 24.88 mM NaHCO3, and 11.1 mM D-glucose), and angiotensin II (10 nM)-induced contraction was obtained in the presence of the compounds of each example (1 nmol/L to 10 μmol/L). During the measurement, the inside temperature of the magnus bath was maintained at 37° C. and the bath was continuously ventilated with a sufficient amount of mixed gas (95% O2 and 5% CO2). The angiotensin II-induced contraction was converted into a relative value (%) that is based on the angiotensin II (10 nM)—induced contraction in the absence of the compounds of each example. From the concentration-response curve obtained therefrom, 50% inhibition concentration (IC50 value) was calculated by using SAS Preclinical Package Ver 5.0 (trade name, manufactured by SAS institute Japan Co., Tokyo, Japan), which is a statistical analysis program.

human PPARγ2 = target: T2, human PPARγ2 (Homo sapiens, UniProt P37231); assay: PPARγ activation activity, Gal4-PPARγ2 LBD chimera luciferase transfection assay in COST cells; assay type: cell-based; conditions: Gal4 (aa 1-147)/human PPARγ2 LBD (aa 182-505) chimera, luciferase reporter, 16 hours, rosiglitazone (3 to 10 μmol/L) = 100%, read-out: EC50 (50% effective concentration, PPARγ activation)
T2 construct: the amino acids 182 to 505 of human PPARγ2; expressed in transfected cells; host or cells: COST cells (so in the source)
T2 sequence (P37231 182-505): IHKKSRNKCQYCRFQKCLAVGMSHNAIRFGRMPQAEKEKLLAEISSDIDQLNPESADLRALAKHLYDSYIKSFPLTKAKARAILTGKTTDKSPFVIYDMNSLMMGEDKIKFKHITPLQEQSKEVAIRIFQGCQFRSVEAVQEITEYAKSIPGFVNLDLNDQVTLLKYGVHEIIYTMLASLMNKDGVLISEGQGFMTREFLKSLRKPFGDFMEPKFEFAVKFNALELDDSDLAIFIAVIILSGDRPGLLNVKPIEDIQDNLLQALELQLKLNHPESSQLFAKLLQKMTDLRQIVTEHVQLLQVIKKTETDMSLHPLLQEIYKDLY
Experimental: PPARγ Activation Activity
The agonistic activity of the compounds of the invention on PPARγ was measured based on the transfection assay using COST cells (DS Pharma Biomedical Co., Ltd., Osaka, Japan), which are the cell line derived from the kidney of the African green monkey. COST cells were cultured under 5% CO2 concentration, and DMEM medium containing 10% fetal bovine serum, glutamic acid, and antibiotics was used as a medium.
As an expression vector, a chimera in which DNA binding domain of Ga14, which is a yeast transcription factor, and ligand binding domain of human PPARγ2 are fused, i.e., a fused product between the amino acids 1 to 147 of Gal4 transcription factor and the amino acids 182 to 505 of human PPARγ2, was used. Furthermore, as a reporter vector, a firefly luciferase containing five copies of Gal4 recognition sequence in the promoter region was used. Plasmid transfection to the cells was performed according to a method which uses jetPEI (trade name, manufactured by Funakoshi Co., Ltd., Tokyo, Japan). Furthermore, β-galactosidase expression vector was employed as an internal standard.
After the transfection of the cells, the medium was replaced with a DMEM medium (containing 1% serum) added with the test compound, and the cells were further cultured for 16 hours. After that, the luciferase activity and β-galactosidase activity in the cell lysis solution were measured.
For the present test, dimethylsulfoxide (DMSO) was used for dissolution and dilution of the test compounds, and during the cell treatment, the DMSO concentration in DMEM medium (containing 1% serum) was adjusted to 0.1%. As a positive compound, rosiglitazone (trade name, manufactured by ALEXIS Corporation, Switzerland) was used. The percentage (%) of the luciferase activity of the each test compound (1 to 30 μmol/L) was calculated when the luciferase activity of rosiglitazone (3 to 10 μmol/L) is 100% and the luciferase activity in the absence of the test compound is 0%. The 50% effective concentration of the test compound (EC50, 50% effect concentration) was calculated by using SAS Preclinical Package Ver 5.0 (trade name, manufactured by SAS institute Japan Co., Tokyo, Japan), which is a statistical analysis program.

SMILES	IC50 [1] [nM]	EC50 (human PPARγ2) [nM]
CCCCc1nc(C)nc(OCC(=O)OCC)c1Cc1ccc(-c2ccccc2-c2noc(=O)[nH]2)cc1 [Example 1, ethyl 2-{{6-butyl-2-methyl-5-{[2′-(5-oxo-4,5-dihydro-1,2,4-oxadiazol-3-yl)-[1,1′-biphenyl]-4-yl]methyl}pyrimidin-4-yl}oxy}acetate]	810	1050
CCCCc1nc(C)nc(OCC(=O)NCC)c1Cc1ccc(-c2ccccc2-c2noc(=O)[nH]2)cc1 [Example 4, 2-{{6-butyl-2-methyl-5-{[2′-(5-oxo-4,5-dihydro-1,2,4-oxadiazol-3-yl)-[1,1′-biphenyl]-4-yl]methyl}pyrimidin-4-yl}oxy}-N-ethylacetamide]	290	–
CCCCc1nc(C)nc(OCC(=O)N(CC)CC)c1Cc1ccc(-c2ccccc2-c2noc(=O)[nH]2)cc1 [Example 5, 2-{{6-butyl-2-methyl-5-{[2′-(5-oxo-4,5-dihydro-1,2,4-oxadiazol-3-yl)-[1,1′-biphenyl]-4-yl]methyl}pyrimidin-4-yl}oxy}-N,N-diethylacetamide]	60	–
CCCCc1nc(C)nc(OCC(C)=O)c1Cc1ccc(-c2ccccc2-c2noc(=O)[nH]2)cc1 [Example 22, 3-{4′-{[4-butyl-2-methyl-6-(2-oxopropoxy)pyrimidin-5-yl]methyl}-[1,1′-biphenyl]-2-yl}-1,2,4-oxadiazol-5(4H)-one]	100	950
CCCCc1nc(C)nc(OCC(=O)N2CCCCC2)c1Cc1ccc(-c2ccccc2-c2noc(=O)[nH]2)cc1 [Example 30]	230	1210

Further compounds by falling IC50 [1], results first:

IC50 [1] [nM]	EC50 (human PPARγ2) [nM]	SMILES
770	1320	CCCCc1nc(C)nc(OCCO)c1Cc1ccc(-c2ccccc2-c2noc(=O)[nH]2)cc1 [Example 15, 3-{4′-{[4-butyl-6-(2-hydroxyethoxy)-2-methylpyrimidin-5-yl]methyl}-[1,1′-biphenyl]-2-yl}-1,2,4-oxadiazol-5(4H)-one]
640	–	CCCCc1nc(C)nc(OC(Cc2ccccc2)C(=O)O)c1Cc1ccc(-c2ccccc2-c2noc(=O)[nH]2)cc1 (stereo not drawn) [Example 28, 2-{{6-butyl-2-methyl-5-{[2′-(5-oxo-4,5-dihydro-1,2,4-oxadiazol-3-yl)-[1,1′-biphenyl]-4-yl]methyl}pyrimidin-4-yl}oxy}-3-phenylpropionic acid]
480	920	CCCCc1nc(C)nc(OCCOC)c1Cc1ccc(-c2ccccc2-c2noc(=O)[nH]2)cc1 [Example 33, 3-{4′-{[4-butyl-6-(2-methoxyethoxy)-2-methylpyrimidin-5-yl]methyl}-[1,1′-biphenyl]-2-yl}-1,2,4-oxadiazol-5(4H)-one]
380	2920	CCCCc1nc(C)nc(OC(C(=O)O)c2ccccc2)c1Cc1ccc(-c2ccccc2-c2noc(=O)[nH]2)cc1 (stereo not drawn) [Example 26, 2-{{6-butyl-2-methyl-5-{[2′-(5-oxo-4,5-dihydro-1,2,4-oxadiazol-3-yl)-[1,1-biphenyl]-4-yl]methyl}pyrimidin-4-yl}oxy}-2-phenylacetic acid]
230	–	CCCCc1nc(C)nc(OCC(=O)O)c1Cc1ccc(-c2ccccc2-c2noc(=O)[nH]2)cc1 [Example 2, 2-{{6-butyl-2-methyl-5-{[2′-(5-oxo-4,5-dihydro-1,2,4-oxadiazol-3-yl)-[1,1′-biphenyl]-4-yl]methyl}pyrimidin-4-yl}oxy}acetic acid]
130	870	CCCCc1nc(C)nc(OCCCC(=O)OCC)c1Cc1ccc(-c2ccccc2-c2noc(=O)[nH]2)cc1 [Example 6, ethyl 4-{{6-butyl-2-methyl-5-{[2′-(5-oxo-4,5-dihydro-1,2,4-oxadiazol-3-yl)-[1,1′-biphenyl]-4-yl]methyl}pyrimidin-4-yl}oxy}butanoate]
